What all share (test): NCI tumour cell line growth inhibition, 48 h
The subject of assay [1] is 786-0 renal.
Assay [2] concerns A498 renal.
Assay [3] deals with A549 NSCLC.
Assay [4] deals with BT-549 breast.
Assay [5] relates to IGROV1 ovarian.
The test system of assay [6] is MALME-3M melanoma.
Assay [7] relates to MOLT-4 leukemia.
For assay [8], the system named is NCI-H460 lung.
In assay [9] the test system is RXF 393 renal.
Assay [10] deals with SK-MEL-2 melanoma.
Assay [11] relates to SK-MEL-28 melanoma.
The test system of assay [12] is TK-10 renal.
The subject of assay [13] is UACC-62 melanoma.

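How tested: cells in 96-well plates exposed to compound for 48 hours at five concentrations. The concentration for full growth arrest is given as TGI.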 Some results are limits rather than exact numbers.

Regarding `Fc1ccc2c(c1)nc1n2C(c2c(Cl)cccc2Cl)SC1` (stereo not drawn), the TGI came to 29.5 µM in assay [1]; 35.4 µM in assay [2]; 28.2 µM in [3]; 30.5 µM in [4]; 27.1 µM in [5]; 25.6 µM in assay [6]. For the same molecule, the TGI in assay [7] was 52.5 µM; in assay [8] it was 20.8 µM; in assay [9], 31.9 µM; in assay [10], 29.7 µM; in assay [11] it was 24.3 µM; in [12], 31.6 µM. The molecule also showed a TGI in [13] of 26.2 µM.

On to `O=c1[nH]cnc2c1cnn2Cc1cn(CCCCO)nn1`, for which the TGI in assay [1], in [2], in assay [3], in assay [4], in assay [5] and in assay [6] was greater than 100 µM each time. Also, the TGI in assay [7], in assay [8], in assay [9], in assay [10], in assay [11] and in assay [12] was greater than 100 µM throughout. The same molecule had a TGI in [13] greater than 100 µM.

In the case of `O=C1Nc2cccc(Cl)c2/C1=C\c1c(Cl)nc2n1CCS2`, the TGI in assay [1], in assay [2], in [3], in assay [4], in assay [5] and in [6] was greater than 100 µM each time. The TGI in assay [7], in [8], in [9], in assay [10], in assay [11] and in assay [12] was greater than 100 µM each time. Also, the TGI in assay [13] is greater than 100 µM.

In the case of `CCOC1(OCC)C2C=CC1C(COS(=O)(=O)c1ccc(C)cc1)C2COS(=O)(=O)c1ccc(C)cc1` (stereo not drawn), the TGI is greater than 100 µM in [1]; 54.9 µM in [2]; greater than 100 µM in [3]; greater than 100 µM in assay [4]; greater than 100 µM in assay [5]; 77.1 µM in assay [6]. In addition, the TGI was 99.3 µM in assay [7]; greater than 100 µM in [8]; greater than 100 µM in [9]; 80.9 µM in assay [10]; greater than 100 µM in [11]; greater than 100 µM in assay [12]. In assay [13], this molecule yielded a TGI greater than 100 µM.

With `Nc1ccc2c(c1)C(=O)N1CCC[C@H]1C(=O)N2`, the TGI in [1], in assay [2], in assay [3], in assay [4], in assay [5] and in assay [6] was greater than 100 µM throughout. Further, the TGI in assay [7], in [8], in assay [9], in [10], in assay [11] and in assay [12] was greater than 100 µM each time. The TGI in assay [13] is greater than 100 µM.

`BrC1=C(Br)C2(SCCS2)[C@H]2C[C@@H]1c1ccccc12`: the TGI in [1], in [2], in assay [3], in assay [4], in assay [5] and in [6] was greater than 100 µM throughout. For the same molecule, the TGI in assay [7], in assay [8], in assay [9], in assay [10], in assay [11] and in assay [12] was greater than 100 µM in each case. The same molecule had a TGI in assay [13] greater than 100 µM.

Turning to `Cc1ccc(-c2c(C#N)c(-c3ccc(C)cc3)n(NS(=O)(=O)c3ccccc3)c(=O)c2C#N)cc1`, the TGI in [1], in [2], in [3], in assay [4], in [5] and in assay [6] was greater than 100 µM each time. The TGI in assay [7] is 64.7 µM; in assay [8], greater than 100 µM; in [9] it was greater than 100 µM; in assay [10], greater than 100 µM; in assay [11], greater than 100 µM; in assay [12] it was greater than 100 µM. Besides, the TGI in assay [13] was greater than 100 µM.

In the case of `CC(C)(C)OC(=O)NC1CCCCC1NC(=O)C(=O)NC1CCCCC1NC(=O)OC(C)(C)C` (stereo not drawn), the TGI in assay [1] is greater than 100 µM; in assay [2] it was 79.6 µM; in assay [3] it was greater than 100 µM; in [4] it was greater than 100 µM; in assay [5] it was greater than 100 µM; in [6], greater than 100 µM. Further, the TGI in assay [7] was greater than 100 µM; in [8] it was greater than 100 µM; in [9] it was 38.8 µM; in assay [10], greater than 100 µM; in assay [11], greater than 100 µM; in [12], greater than 100 µM. Besides, in assay [13], the TGI turned out to be 92.9 µM.

For the molecule `O=S(=O)(O)CCCc1cccc2ccccc12`, the TGI in [1], in assay [2], in [3], in assay [4], in [5] and in assay [6] was greater than 100 µM throughout. In addition, the TGI in assay [7], in assay [8], in assay [9], in assay [10], in [11] and in assay [12] was greater than 100 µM throughout. This molecule displayed a TGI in [13] greater than 100 µM.

As to `C[C@H]1[C@H]2[C@H]3CC[C@@H]4[C@@]5(C)CC[C@H](O)C(C)(C)[C@@H]5CC[C@@]4(C)[C@]3(C)C[C@H](O)[C@@]2(C)C[C@H]2O[C@]21C`, the TGI in assay [1] came out at 45.1 µM; in assay [2], 38.7 µM; in [3], 41.7 µM; in assay [4], 41.5 µM; in assay [5] it was 71.1 µM; in assay [6] it was 39.6 µM. The TGI is greater than 100 µM in assay [7]; 40.1 µM in assay [8]; 35.1 µM in [9]; 41.2 µM in assay [10]; 36.9 µM in assay [11]; 41.5 µM in assay [12]. The molecule also returned a TGI in assay [13] of 76 µM.

For `COc1cc(OC)cc(Oc2nc3ccccc3nc2C(F)(F)F)c1`, the TGI was greater than 100 µM in assay [1]; 73.9 µM in [2]; greater than 100 µM in [3]; greater than 100 µM in assay [4]; greater than 100 µM in [5]; greater than 100 µM in assay [6]. Also, the TGI in assay [7], in [8], in assay [9], in assay [10], in [11] and in assay [12] was greater than 100 µM in each case. In addition, the TGI in [13] is greater than 100 µM.

For `O=C(/C=C/c1ccccc1)Oc1cccc(O)c1`, the TGI was greater than 100 µM in assay [1]; greater than 100 µM in assay [2]; greater than 100 µM in assay [3]; greater than 100 µM in [4]; 43.6 µM in assay [5]; greater than 100 µM in assay [6]. Moreover, the TGI was 21.8 µM in assay [7]; greater than 100 µM in assay [8]; greater than 100 µM in assay [9]; greater than 100 µM in [10]; 66.8 µM in assay [11]; greater than 100 µM in assay [12]. Also, the TGI in [13] is greater than 100 µM.

For the molecule `Cc1ccc2c(c1)C(=S)N1CSCC1c1nncn1-2` (stereo not drawn), the TGI in assay [1], in [2], in assay [3], in assay [4], in [5] and in [6] was greater than 100 µM throughout. Further, the TGI in assay [7], in [8], in assay [9], in [10], in assay [11] and in [12] was greater than 100 µM in each case. Also, in [13], the TGI was greater than 100 µM.

With `O=C1C=CC(=O)c2c1ccc1c3ccccc3n(CCCCCn3c4ccccc4c4ccc5c(c43)C(=O)C=CC5=O)c21`, the TGI in [1] was 14.3 µM; in assay [2], greater than 95.7 µM; in assay [3], greater than 100 µM; in [4], 82 µM; in assay [5], 20.6 µM; in assay [6] it was 31.9 µM. Besides, the TGI was 5.11 µM in assay [7]; greater than 100 µM in assay [8]; 21.1 µM in [9]; 44.8 µM in [10]; 31.5 µM in assay [11]; 26.8 µM in [12]. Also, the TGI in assay [13] was determined as 71.8 µM.

Take `Cc1ccc(S(=O)(=O)c2[nH]cc(/C(=C\C3CCCCC3)[N+](=O)[O-])c2C2CCCCC2)cc1`: the TGI in assay [1] was determined as 0.442 µM; in assay [2] it was 0.837 µM; in assay [3], 6.59 µM; in assay [4], 0.813 µM; in [5], 1.13 µM; in assay [6], 1.62 µM. Further, the TGI in [7] stood at 0.94 µM; in assay [8], 2.99 µM; in assay [9] it was 0.407 µM; in [10], 1.82 µM; in [11] it was 2.75 µM; in [12] it was 2.08 µM. In assay [13], this molecule had a TGI of 0.625 µM.

With `C/C=C/C(CC(O)(C(F)(F)F)C(F)(F)F)=N/NC(N)=S`, the TGI in [1], in [2], in [3], in [4], in [5] and in assay [6] was greater than 10 µM throughout. The TGI in [7], in [8], in assay [9], in assay [10], in assay [11] and in assay [12] was greater than 10 µM in each case. In addition, the TGI in [13] was greater than 10 µM.

On to `Cc1[nH]c(=O)nc2nc3ccc(Cl)cc3c(NCCNCCO)c12`, for which the TGI in assay [1] stood at 21.2 µM; in [2], 34.6 µM; in [3], 33 µM; in assay [4], 30.5 µM; in assay [5] it was 25.4 µM; in assay [6], 28.5 µM. Moreover, the TGI in assay [7] was greater than 100 µM; in [8], 25 µM; in [9], 28.5 µM; in [10], 28.3 µM; in assay [11], 31.8 µM; in [12] it was 33.1 µM. In [13], this molecule gave a TGI of 24.3 µM.

For `Cc1ccc(C2SCC(=O)N2c2ccc(-n3c(-c4ccccc4)nc4ccccc4c3=O)cc2)cc1` (stereo not drawn), the TGI in assay [1] was 74.1 µM; in assay [2], 90.3 µM; in [3] it was greater than 100 µM; in assay [4], 54.7 µM; in assay [5], 90.7 µM; in [6], 73 µM. In addition, the TGI was greater than 100 µM in [7]; 27.6 µM in assay [8]; 91.3 µM in assay [9]; 51.3 µM in assay [10]; greater than 100 µM in assay [11]; greater than 100 µM in assay [12]. Also, the TGI in assay [13] is 51.5 µM.

Consider `COC(=O)c1c(O)ccc2c1c1c(n2Cc2cc(OC)cc(OC)c2)C(=O)c2ccccc2C1`, for which the TGI in assay [1], in assay [2], in assay [3], in assay [4], in [5] and in assay [6] was greater than 100 µM each time. The TGI was greater than 100 µM in assay [7]; greater than 100 µM in [8]; 68.6 µM in assay [9]; greater than 100 µM in assay [10]; 60.9 µM in assay [11]; greater than 100 µM in assay [12]. In [13], this molecule gave a TGI greater than 100 µM.

With `O=c1[nH]nnc2c1sc1ncccc12`, the TGI in assay [1], in assay [2], in assay [3], in assay [4], in assay [5] and in assay [6] was greater than 100 µM in each case. Further, the TGI in [7], in assay [8], in assay [9], in [10], in [11] and in [12] was greater than 100 µM in each case. The molecule further yielded a TGI in assay [13] greater than 100 µM.

`CCO/C(O)=C(/C(=N)N1CCOCC1)C(=O)Nc1ccc(F)cc1`: the TGI in assay [1], in [2], in assay [3], in [4], in assay [5] and in assay [6] was greater than 100 µM in each case. The TGI in assay [7], in assay [8], in [9], in assay [10], in assay [11] and in [12] was greater than 100 µM in each case. In [13], this molecule yielded a TGI greater than 100 µM.
